Source: ChEMBL document CHEMBL1909046, “DrugMatrix in vitro pharmacology data”

What was measured:
Acetylcholinesterase = Acetylcholinesterase (Homo sapiens, UniProt P22303); assay: DRUGMATRIX: Acetylcholinesterase enzyme inhibition (substrate: acetylthiocholine); assay type: cell-based, HEK293; conditions: hek293; Not Active = under 50% inhibition at 10 µM
Cytochrome P450 2E1 = Cytochrome P450 2E1 (Homo sapiens, UniProt P05181); conditions: bti-tn-5b1-4; note: in other assays of this panel Not Active means under 50% inhibition at 10 µM
Cytochrome P450 2E1, sequence (P05181 whole entry): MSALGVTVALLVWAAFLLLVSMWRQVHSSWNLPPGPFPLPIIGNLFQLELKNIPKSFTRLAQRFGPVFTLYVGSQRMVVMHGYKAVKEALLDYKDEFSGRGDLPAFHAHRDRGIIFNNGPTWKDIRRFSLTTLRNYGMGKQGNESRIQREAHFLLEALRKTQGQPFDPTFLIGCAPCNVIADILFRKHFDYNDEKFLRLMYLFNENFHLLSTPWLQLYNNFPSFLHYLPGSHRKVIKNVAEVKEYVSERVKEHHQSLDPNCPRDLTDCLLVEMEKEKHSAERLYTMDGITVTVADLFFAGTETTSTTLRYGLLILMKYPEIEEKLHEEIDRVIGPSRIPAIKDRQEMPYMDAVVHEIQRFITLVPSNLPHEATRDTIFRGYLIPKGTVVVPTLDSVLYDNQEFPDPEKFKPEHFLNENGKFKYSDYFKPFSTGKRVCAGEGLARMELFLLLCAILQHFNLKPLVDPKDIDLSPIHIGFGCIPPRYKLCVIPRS

[1] = DRUGMATRIX: Calcium Channel Type L, Benzothiazepine radioligand binding (ligand: [3H] Diltiazem); assay type: cell membranes, Rattus norvegicus, Wistar, Brain, Membrane; conditions: Not Active = under 50% inhibition at 10 µM
[2] = molecular target: T1, Angiotensin-converting enzyme (Oryctolagus cuniculus, UniProt P12822); assay type: tissue-based, Lung;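 note: enzymatic inhibition of angiotensin-converting enzyme measured with FAPGG as the substrate; in other assays of this panel Not Active means under 50% inhibition at 10 µM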
T1 sequence (P12822 whole entry): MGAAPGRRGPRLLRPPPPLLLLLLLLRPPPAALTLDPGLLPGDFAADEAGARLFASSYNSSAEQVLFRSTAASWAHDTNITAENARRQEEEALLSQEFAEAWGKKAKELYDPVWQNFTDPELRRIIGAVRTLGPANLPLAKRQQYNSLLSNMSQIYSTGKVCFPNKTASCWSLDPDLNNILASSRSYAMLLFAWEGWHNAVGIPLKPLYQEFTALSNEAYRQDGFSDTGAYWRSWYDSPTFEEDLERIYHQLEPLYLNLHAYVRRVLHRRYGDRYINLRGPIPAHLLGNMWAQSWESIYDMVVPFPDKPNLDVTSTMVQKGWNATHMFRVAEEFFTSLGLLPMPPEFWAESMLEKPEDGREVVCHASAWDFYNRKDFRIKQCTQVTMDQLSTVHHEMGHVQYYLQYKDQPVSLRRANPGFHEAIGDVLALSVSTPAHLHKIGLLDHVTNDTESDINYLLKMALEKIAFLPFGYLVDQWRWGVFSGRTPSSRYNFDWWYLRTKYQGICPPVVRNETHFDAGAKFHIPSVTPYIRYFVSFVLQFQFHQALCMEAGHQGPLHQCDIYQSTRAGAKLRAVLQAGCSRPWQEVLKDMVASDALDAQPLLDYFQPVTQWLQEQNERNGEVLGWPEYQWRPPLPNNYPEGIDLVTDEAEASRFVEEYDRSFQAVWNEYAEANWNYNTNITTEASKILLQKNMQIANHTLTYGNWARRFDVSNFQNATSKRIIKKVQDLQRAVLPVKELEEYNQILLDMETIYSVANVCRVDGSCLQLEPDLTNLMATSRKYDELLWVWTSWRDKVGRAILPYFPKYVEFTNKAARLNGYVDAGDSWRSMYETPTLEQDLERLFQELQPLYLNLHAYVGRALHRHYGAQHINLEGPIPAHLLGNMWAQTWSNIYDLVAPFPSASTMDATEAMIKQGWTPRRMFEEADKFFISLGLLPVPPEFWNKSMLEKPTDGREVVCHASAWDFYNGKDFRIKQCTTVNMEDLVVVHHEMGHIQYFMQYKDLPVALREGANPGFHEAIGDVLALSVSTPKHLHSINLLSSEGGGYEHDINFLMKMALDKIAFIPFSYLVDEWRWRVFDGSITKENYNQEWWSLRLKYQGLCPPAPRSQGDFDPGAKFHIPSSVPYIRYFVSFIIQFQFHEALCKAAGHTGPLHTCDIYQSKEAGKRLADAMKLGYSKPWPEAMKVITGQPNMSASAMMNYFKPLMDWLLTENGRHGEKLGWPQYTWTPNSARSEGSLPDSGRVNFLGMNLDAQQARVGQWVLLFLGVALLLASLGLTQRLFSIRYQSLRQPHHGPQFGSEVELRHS

[3] = DRUGMATRIX: Nicotinic Acetylcholine radioligand binding (ligand: [125I] Epibatidine); assay type: cell membranes, Membrane; conditions: imr-32; Not Active = under 50% inhibition at 10 µM
[4] = molecular target: Vascular endothelial growth factor receptor 1 (Homo sapiens, UniProt P17948); assay: biochemical; assay type: cell-based, HUVEC; conditions: huvec; note: in other assays of this panel Not Active means under 50% inhibition at 10 µM
Vascular endothelial growth factor receptor 1, sequence (P17948 whole entry): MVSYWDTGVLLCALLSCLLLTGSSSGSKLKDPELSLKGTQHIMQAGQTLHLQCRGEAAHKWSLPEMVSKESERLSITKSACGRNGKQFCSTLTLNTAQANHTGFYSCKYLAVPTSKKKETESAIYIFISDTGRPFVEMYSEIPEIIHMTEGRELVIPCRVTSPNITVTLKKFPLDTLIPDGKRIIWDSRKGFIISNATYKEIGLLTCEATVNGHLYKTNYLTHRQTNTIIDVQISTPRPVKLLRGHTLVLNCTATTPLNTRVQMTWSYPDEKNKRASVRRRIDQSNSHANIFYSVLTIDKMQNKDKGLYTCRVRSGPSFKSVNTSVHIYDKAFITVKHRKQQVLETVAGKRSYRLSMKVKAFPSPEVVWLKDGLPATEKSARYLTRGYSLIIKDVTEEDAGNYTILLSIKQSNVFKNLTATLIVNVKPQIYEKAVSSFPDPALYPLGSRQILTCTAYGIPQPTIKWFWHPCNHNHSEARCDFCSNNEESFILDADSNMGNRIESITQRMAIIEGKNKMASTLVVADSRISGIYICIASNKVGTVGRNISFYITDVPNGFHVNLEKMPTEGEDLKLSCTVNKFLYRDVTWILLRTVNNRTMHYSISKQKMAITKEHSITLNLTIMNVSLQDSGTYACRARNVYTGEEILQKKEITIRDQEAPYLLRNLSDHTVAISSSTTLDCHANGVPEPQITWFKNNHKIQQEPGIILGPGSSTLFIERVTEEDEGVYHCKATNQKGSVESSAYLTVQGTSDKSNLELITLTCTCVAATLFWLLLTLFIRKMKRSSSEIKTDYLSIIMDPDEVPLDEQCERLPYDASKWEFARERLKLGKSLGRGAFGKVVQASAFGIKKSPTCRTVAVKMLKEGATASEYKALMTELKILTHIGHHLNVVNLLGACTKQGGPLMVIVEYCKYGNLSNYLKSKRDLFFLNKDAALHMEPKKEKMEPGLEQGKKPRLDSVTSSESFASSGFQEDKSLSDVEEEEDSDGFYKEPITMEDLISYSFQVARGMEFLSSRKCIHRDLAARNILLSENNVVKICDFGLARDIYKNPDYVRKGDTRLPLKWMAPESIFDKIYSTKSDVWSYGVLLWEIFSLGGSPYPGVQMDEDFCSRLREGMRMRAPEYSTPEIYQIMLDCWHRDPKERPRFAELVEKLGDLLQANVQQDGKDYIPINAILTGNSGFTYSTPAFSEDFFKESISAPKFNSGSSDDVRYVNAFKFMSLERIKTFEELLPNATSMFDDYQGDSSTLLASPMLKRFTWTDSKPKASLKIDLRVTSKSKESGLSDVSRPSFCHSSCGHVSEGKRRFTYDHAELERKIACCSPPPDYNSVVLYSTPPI

[5] = molecular target: T2, C-X-C chemokine receptor type 2 (Homo sapiens, UniProt P25025); assay type: cell membranes, Membrane; conditions: cho-k1; note: in other assays of this panel Not Active means under 50% inhibition at 10 µM
T2 sequence (P25025 whole entry): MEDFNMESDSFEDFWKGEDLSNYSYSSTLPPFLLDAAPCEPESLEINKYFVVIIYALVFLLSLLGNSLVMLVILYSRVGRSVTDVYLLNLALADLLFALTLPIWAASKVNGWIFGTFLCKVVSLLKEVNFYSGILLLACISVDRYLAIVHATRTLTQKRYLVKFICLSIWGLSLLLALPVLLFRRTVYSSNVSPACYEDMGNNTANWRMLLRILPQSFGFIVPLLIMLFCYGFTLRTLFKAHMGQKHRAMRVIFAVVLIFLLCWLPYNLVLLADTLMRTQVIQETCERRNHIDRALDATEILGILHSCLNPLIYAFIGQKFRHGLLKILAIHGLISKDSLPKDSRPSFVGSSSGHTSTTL

Acetylcholinesterase, sequence (P22303 whole entry): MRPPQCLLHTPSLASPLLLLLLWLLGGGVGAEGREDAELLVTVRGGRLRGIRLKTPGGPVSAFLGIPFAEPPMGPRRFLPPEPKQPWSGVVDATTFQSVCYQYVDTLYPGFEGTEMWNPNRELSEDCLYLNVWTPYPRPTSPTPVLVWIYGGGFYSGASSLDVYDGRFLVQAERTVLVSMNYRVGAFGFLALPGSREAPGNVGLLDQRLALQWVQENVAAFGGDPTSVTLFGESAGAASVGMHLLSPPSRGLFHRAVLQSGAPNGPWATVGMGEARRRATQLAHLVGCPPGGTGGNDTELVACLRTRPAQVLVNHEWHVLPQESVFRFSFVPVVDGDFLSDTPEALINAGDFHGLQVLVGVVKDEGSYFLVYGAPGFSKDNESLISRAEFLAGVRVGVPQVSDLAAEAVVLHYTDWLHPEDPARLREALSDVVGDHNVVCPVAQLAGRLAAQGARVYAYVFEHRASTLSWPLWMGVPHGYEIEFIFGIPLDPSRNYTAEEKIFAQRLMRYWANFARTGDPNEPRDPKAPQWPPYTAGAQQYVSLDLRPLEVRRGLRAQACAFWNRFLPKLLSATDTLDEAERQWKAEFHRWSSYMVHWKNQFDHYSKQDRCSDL

CN[C@@H]1[C@H](O)[C@H](NC)[C@H]2O[C@@]3(O)C(=O)C[C@@H](C)O[C@H]3O[C@@H]2[C@H]1O [SPECTINOMYCIN]
Not Active: IC50 (Acetylcholinesterase) | IC50 (Cytochrome P450 2E1) | Ki (Cytochrome P450 2E1) | IC50 [1] | Ki [1] | IC50 [2] | IC50 [3] | Ki [3] | IC50 [4] | IC50 [5]

CO[C@H]1C[C@@H]2CC[C@@H](C)[C@@](O)(O2)C(=O)C(=O)N2CCCC[C@H]2C(=O)O[C@H]([C@H](C)C[C@@H]2CC[C@@H](O)[C@H](OC)C2)CC(=O)[C@H](C)/C=C(\C)[C@@H](O)[C@@H](OC)C(=O)[C@H](C)C[C@H](C)/C=C/C=C/C=C/1C [SIROLIMUS]
Not Active: IC50 (Acetylcholinesterase) | IC50 (Cytochrome P450 2E1) | Ki (Cytochrome P450 2E1) | IC50 [1] | Ki [1] | IC50 [2] | IC50 [3] | Ki [3] | IC50 [4] | IC50 [5]

O=P(O)(O)C(O)(Cc1cccnc1)P(=O)(O)O [RISEDRONIC ACID]
Not Active: IC50 (Acetylcholinesterase) | IC50 (Cytochrome P450 2E1) | Ki (Cytochrome P450 2E1) | IC50 [1] | Ki [1] | IC50 [2] | IC50 [3] | Ki [3] | IC50 [4] | IC50 [5]
